Earlier results as cited in paper PMC6500982 (Cancer Science, 2019).
Like-named read-outs stand apart in the source and are kept apart here.

System: ABC DLBCL tumors
Conditions: cited from earlier work

In the case of `C=CC(=O)N1CCC[C@@H](n2nc(-c3ccc(Oc4ccccc4)cc3)c3c(N)ncnc32)C1` [ibrutinib], the “Patients who responded to treatment” value (ABC tumors with B‐cell receptor mutations who also had MYD88 mutations) is given as 80% and the “Patients who responded to treatment” value (ABC tumors with B‐cell receptor mutations) is given as 55.5%.
